Reference: publication PMC8297402, “Trifluoromethyl-substituted 3,5-bis(arylidene)-4-piperidones as potential anti-hepatoma and anti-inflammation agents by inhibiting NF-кB activation” (Journal of Enzyme Inhibition and Medicinal Chemistry, 2021)
Several values for one entry are separate records, joined by “and”; a condition that tells them apart may be missing. Identical values can stand only once. Like-named read-outs stand apart in the source and are kept apart here.

Legend:
HepG2 = assay: Modified MTT cytotoxicity assay, HepG2; type: cell-based, Human; conditions: for SI (selectivity index) HepG2: quotient of IC50 for normal (LO2) and malignant (HepG2) cells; for SI value, average: average of SI for HepG2 and SMMC-7721
Procedure: (§1) The HepG2, SMMC-7721, and LO2 cell lines were maintained at 37 °C, 5% humidified CO2, and 95% atmosphere. Dulbecco's Modified Eagle (DMEM) medium containing 10% foetal bovine serum (FBS) was used for culturing the HepG2 cell line; meanwhile, Roswell Park Memorial Institute (RPMI) 1640 medium containing 10% FBS was used for culturing other cell lines (SMMC-7721, LO2). The HepG2, SMMC-7721 and LO2 cells were seeded in a 96-well plate in 200 μL of medium per well at a density of approximately 8 × 10^3 cells/well and cultured for 24 h, followed by incubation in an incubator of indicated compounds with successive concentrations (10, 5, 2.5, 1.25, 0.625, 0.3125 μg/mL) for 24 h. In the control group, cells were only cultured with culture media. After the media were removed, 20 μL of MTT (5 mg/mL) was added, then cells were incubated for 4 h at 37 °C. […] GraphPad Prism 5 software was used to calculate their IC50 values. Every IC50 value was the average of three replicates. Doxorubicin (DOX) and curcumin were used as positive controls.

SMMC-7721 = assay: Modified MTT cytotoxicity assay, SMMC-7721; type: cell-based, Human; conditions: for IC50: MTT, 24 h incubation, three replicates; for SI (selectivity index) SMMC-7721: quotient of IC50 for normal (LO2) and malignant (SMMC-7721) cells
Procedure: as §1

LO2 = assay: Modified MTT cytotoxicity assay, normal heptical cell line LO2; type: cell-based, human; conditions: 24 h incubation
Procedure: as §1

RAW264.7 cell = assay: MTT toxicity pre-experiment on RAW264.7 macrophagocyte; type: cell-based, mouse; conditions: for Survival rate RAW264.7 cell: BAPs 5 μM
Procedure: Lipopolysaccharide (LPS) is a key constituent of Gram-negative bacterial endotoxin, which is used to induce an inflammatory response in corresponding inflammatory cells. TNF-α and IL-6 are two kinds of representative pro-inflammatory factors, which produced by LPS-stimulated RAW264.7 macrophage. In our pre-experiments, the toxicity against RAW264.7 macrophagocyte for all title compounds was tested by the MTT assay, and the results were listed in Table 2. The survival rates were above 80% for all BAPs (4-30) at the concentration of 5.0 μM.

TNF-α = assay: ELISA of TNF-α release in LPS-stimulated RAW264.7 cells; type: cell-based, mouse; conditions: for Inhibition rate TNF-α: BAPs (5 μM) + LPS (1 μg/mL); for Inhibition rates against IL-6 and TNF-α cytokine release, average: average of TNF-α and IL-6, 5 μM + LPS, RAW264.7
Procedure: (§2) We tested by inhibiting the secretion of TNF-α and IL-6 to better evaluated the anti-inflammatory effects of BAPs. […] Under the stimulation of LPS (1.0 μg/mL) with RAW264.7 cells, the release of TNF-α and IL-6 was detected. Besides, after treated with BAPs (5.0 μM) and LPS (1.0 μg/mL), the release of TNF-α and IL-6 was measured with an ELISA kit (eBioScience, San Diego, California), respectively. In general terms, pyrrolidine dithiocarbamate (PDTC, 30 μM) or BAP (5.0 μM) was used to pretreat cells for 2 h, respectively. Then, LPS (1.0 μg/mL) was added and cells were incubated for another 22 h. Finally, the culture media were centrifuged at 1000 rpm for 10 min, and the expression levels of TNF-α and IL-6 were determined by ELISA.

IL-6 = assay: ELISA of IL-6 release in LPS-stimulated RAW264.7 cells; type: cell-based, mouse; conditions: RAW264.7, ELISA; for Inhibition rate IL-6: BAPs (5 μM) + LPS (1 μg/mL)
Procedure: as §2

A549 = assay: Modified MTT cytotoxicity assay, A549; conditions: for SI (selectivity index) A549: quotient of IC50 for normal (HHL-5) and malignant (A549) cells
Procedure: (§3) To further verify the anti-tumour activity, one human non-small cell lung cancer cell line (A549), one human ovarian cancer cell line (A2780), and one human normal heptical cell line (HHL-5) were screened by BAPs (4–30) using a modified MTT assay (Supporting Information). DOX and curcumin were selected as positive controls.
(§4) The optical density (OD) value of each well was measured on a
(§5) multi-well plate reader (TECAN, Mӓnnedorf, Switzerland ) at 570 nm.
(§6) Every IC 50 value was the average of three replicates.
(§7) Doxorubicin (DOX) and Curcumin were used as positive controls.

A2780 = assay: Modified MTT cytotoxicity assay, A2780; conditions: for SI (selectivity index) A2780: quotient of IC50 for normal (HHL-5) and malignant (A2780) cells
Procedure: as §3, §4, §5, §6, §7

HHL-5 = assay: Modified MTT cytotoxicity assay, normal heptical cell line HHL-5; conditions: read-out: Cytotoxicity IC50 HHL-5; MTT, normal heptical cell line
Procedure: as §3, §4, §5, §6, §7

[1] = Modified MTT cytotoxicity assay, normal heptical cell line LO2; type: cell-based, human; conditions: human, LO2 cells (normal hepatic cell line), 24 h incubation
Procedure: as §1

[2] = Modified MTT cytotoxicity assay, normal heptical cell line HHL-5; conditions: human, HHL-5 cells (normal hepatic cell line)
Procedure: as §3, §4, §5, §6, §7

[3] = MTT, 24 h incubation, three replicates, read-out: Cytotoxicity IC50 HepG2
[4] = read-out: Cytotoxicity IC50 A549, MTT, non-small cell lung cancer cell line
[5] = read-out: Cytotoxicity IC50 A2780, MTT, ovarian cancer cell line
[6] = average of HepG2 and SMMC-7721, read-out: Cytotoxicity against HCC cells, average

## Cc1ccc(S(=O)(=O)N2C/C(=C\c3ccc(C(F)(F)F)cc3)C(=O)/C(=C/c3ccc(C(F)(F)F)cc3)C2)cc1 [BAP 23]
HepG2; MTT, 24 h incubation, three replicates, listed as 23, read-out: Cytotoxicity IC50 HepG2
  IC50: 1000 ± 300 nM
HepG2; [3]
  IC50: ~1000 nM
HepG2
  SI (selectivity index) HepG2: 13.1
SMMC-7721
  IC50: ~800 nM
  SI (selectivity index) SMMC-7721: 16.4
SMMC-7721; listed as 23
  IC50: 800 ± 200 nM
LO2
  IC50: 13100 ± 300 nM
RAW264.7 cell
  Survival rate RAW264.7 cell: 89.2 ± 3.0%
TNF-α; RAW264.7, ELISA
  Inhibition rate TNF-α: 78.1 ± 3.2%
IL-6
  Inhibition rate IL-6: 69.2 ± 6.3%
A549
  SI (selectivity index) A549: 23.3
A549; [4]
  IC50: 150 ± 20 nM
A2780
  SI (selectivity index) A2780: 21.9
A2780; [5]
  IC50: 160 ± 20 nM
HHL-5
  IC50: 3500 ± 200 nM

## O=C1/C(=C/c2ccc(C(F)(F)F)cc2)CN(S(=O)(=O)c2ccc(C(F)(F)F)cc2)C/C1=C\c1ccc(C(F)(F)F)cc1 [BAP 25]
HepG2; [3]
  IC50: 900 ± 200 nM
HepG2; [6]
  IC50: 1100 nM
HepG2
  SI value, average: 17.2
  SI (selectivity index) HepG2: 20.3
SMMC-7721
  IC50: 1300 ± 300 nM
  SI (selectivity index) SMMC-7721: 14.1
LO2
  IC50: 18300 ± 600 nM
RAW264.7 cell
  Survival rate RAW264.7 cell: 87.3% and 87.3 ± 4.2%
TNF-α
  Inhibition rates against IL-6 and TNF-α cytokine release, average: 78.6%
A549
  SI (selectivity index) A549: 41.1
A549; [4]
  IC50: 270 ± 30 nM
A2780
  SI (selectivity index) A2780: 39.6
A2780; [5]
  IC50: 280 ± 30 nM
HHL-5
  IC50: 11100 ± 200 nM

## O=C1/C(=C/c2ccc(C(F)(F)F)cc2)CN(S(=O)(=O)c2ccc(F)cc2)C/C1=C\c1ccc(C(F)(F)F)cc1 [BAP 26]
HepG2; [3]
  IC50: 3100 ± 200 nM
HepG2
  SI (selectivity index) HepG2: 5.1
SMMC-7721
  IC50: 3100 ± 100 nM
  SI (selectivity index) SMMC-7721: 5.1
LO2
  IC50: 15700 ± 200 nM
RAW264.7 cell
  Survival rate RAW264.7 cell: 87.6 ± 1.7%
TNF-α; RAW264.7, ELISA
  Inhibition rate TNF-α: 66.3 ± 5.3%
IL-6
  Inhibition rate IL-6: 62.8 ± 3.0%
A549
  SI (selectivity index) A549: 70.6
A549; [4]
  IC50: 160 ± 50 nM
A2780
  SI (selectivity index) A2780: 38.0
A2780; [5]
  IC50: 297 ± 50 nM

## O=C1/C(=C/c2ccc(C(F)(F)F)cc2)CN(S(=O)(=O)c2ccc(Br)cc2)C/C1=C\c1ccc(C(F)(F)F)cc1 [BAP 28]
HepG2; Homo sapiens, HepG2, 24 h, MTT, 24 h incubation, three replicates, read-out: Cytotoxicity IC50 HepG2
  IC50: 1700 ± 200 nM
HepG2
  SI (selectivity index) HepG2: 8.4
SMMC-7721; Homo sapiens, SMMC-7721, 24 h
  IC50: 1900 ± 200 nM
SMMC-7721
  SI (selectivity index) SMMC-7721: 7.5
[1]
  IC50 at 24 h: 14200 ± 300 nM
RAW264.7 cell; Mus musculus, RAW264.7, BAPs 5 μM, read-out: Survival rate RAW264.7 cell
  viability at 5 µM: 84 ± 3.6%
TNF-α; Mus musculus, RAW264.7, BAPs (5 μM) + LPS (1 μg/mL), RAW264.7, ELISA, read-out: Inhibition rate TNF-α
  inhibition at 5 µM: > 70%
IL-6; Mus musculus, RAW264.7, BAPs (5 μM) + LPS (1 μg/mL), read-out: Inhibition rate IL-6
  inhibition at 5 µM: > 70%
A549; Homo sapiens, A549, read-out: Cytotoxicity IC50 A549, MTT, non-small cell lung cancer cell line
  IC50: 200 ± 20 nM
A549
  SI (selectivity index) A549: 103.5
A2780; Homo sapiens, A2780, read-out: Cytotoxicity IC50 A2780, MTT, ovarian cancer cell line
  IC50: 180 ± 40 nM
A2780
  SI (selectivity index) A2780: 115.0
[2]
  IC50: 20700 ± 500 nM

## N#Cc1ccc(S(=O)(=O)N2C/C(=C\c3ccc(C(F)(F)F)cc3)C(=O)/C(=C/c3ccc(C(F)(F)F)cc3)C2)cc1 [BAP 29]
HepG2; [3]
  IC50: 1700 ± 100 nM
HepG2; [6]
  IC50: 1500 nM
HepG2
  SI value, average: 14
SMMC-7721
  IC50: 1300 ± 300 nM
  SI (selectivity index) SMMC-7721: 16.5
LO2
  IC50: 21500 ± 1500 nM
RAW264.7 cell
  Survival rate RAW264.7 cell: 83.4% and 83.4 ± 3.3%
TNF-α
  Inhibition rates against IL-6 and TNF-α cytokine release, average: 73.4%
A549; A549 and A2780 vs HHL-5
  SI (selectivity), bound stated for A549 and A2780 together: > 90
A549
  SI (selectivity index) A549: 203.7
A549; [4]
  IC50: ~81 nM
A549; read-out: Cytotoxicity IC50 A549, MTT, non-small cell lung cancer cell line, listed as 29
  IC50: 81 ± 4 nM
A2780
  SI (selectivity index) A2780: 91.7
A2780; [5]
  IC50: ~180 nM
A2780; read-out: Cytotoxicity IC50 A2780, MTT, ovarian cancer cell line, listed as 29
  IC50: 180 ± 10 nM
HHL-5
  IC50: 16500 ± 300 nM
